In patent US8119589B2, “Modulation of CD4+ T cell responses by a tick saliva protein, Salp15 and polypeptides derived therefrom” (University of North Carolina at Charlotte, priority 2004, dated 2012):

Key:
Jurkat clone E6-1 = test: TCR ligation-induced tyrosine phosphorylation in stimulated Jurkat cells; assay type: cell-based, human
Procedure: Naïve CD4+ T cells from C3H/HeN, Balb/c, and B10.BR mice were purified as previously described (Anguita et al., 2002). CD4+ T cells were preincubated in Click's modified Bruff's Medium (Sigma Chemical Co., St. Louis, Mo., U.S.A.) for 10 minutes at 37° C. with and without Salp15 (50 μg/mL) and stimulated for 20 min or the indicated times at 37° C. with 10 μg/mL of anti-CD3ε, 1 μg/mL of anti-CD28, and 10 μg/mL of anti-armenian and syrian hamster IgG (BD Biosciences Pharmingen, San Jose, Calif., U.S.A.). Jurkat (E6-1) cells were stimulated using 5 μg/mL of OKT3 mAb (eBioscience, San Diego, Calif., U.S.A.) and 1 μg/mL of anti-human CD28 cross linked with 5 μg/mL anti-mouse IgG for the indicated times.
For the visualization of lipid rafts, phospho-tyrosine, and cytoskeleton reorganization, CD4^+, CD8^+ or Jurkat cells were cytospun for 10 minutes at 1000 RPM onto positively charged microslides (Fisher Scientific, Hampton, N.H., U.S.A.). The cells were fixed with 3.7% paraformaldehyde (Sigma Chemical Co.) for 15 minutes and stained with CTB594 (Molecular Probes, Eugene, Oreg., U.S.A.), AlexaFluor488 labeled phalloidin (Molecular Probes) or (1:50) biotin-conjugated anti-p-Tyr (PY99) followed by Streptavidin-AlexaFluor594 (1:100, Molecular Probes). […]

CD4 on HeLa-CD4 cells = target: T1, CD4 on HeLa-CD4 cells (Homo sapiens, UniProt P01730); test: Salp15488 binding to HeLa-CD4 and HeLa cells (flow cytometry, confocal microscopy)
T1 construct: host or cells: HeLa
Procedure: For colocalization experiments, Jurkat and CD4^+ T cells were cytospun as described herein. HeLa and HeLa-CD4 cells were grown on chamber slides. The cells were fixed and stained with anti-CD4 and Salp15 as follows. Purified Salp15 was labeled using Alexa-488 with the Protein Labeling Kit (Molecular Probes) according to the manufacturer's instructions. Fixed cells were blocked with 5% normal serum and anti-CD16/CD32 (1:100) in PBS, incubated with 1 μg of monoclonal biotinylated anti-CD4 (L3T4) (BD Biosciences Pharmingen) followed by streptavidin594 staining. The cells were then stained with 20 μg/mL of Salp15488. For competition assays, cells were first blocked with 5% normal serum, incubated with either polyclonal anti-CD4 antibody, MT310, OKT4, normal rabbit IgG, Salp15 (0.5 mg/mL) or lysozyme (0.5 mg/mL) followed by staining with Salp15488. All samples were mounted in a GVA Mount (Zymed, San Francisco, Calif., U.S.A.) and visualized with an Olympus Confocal microscope equipped with Fluoview 3.0 software.
Actin polymerization assay was performed as described earlier (Krishnan et al., 2004). […] The cells were washed, resuspended in PBS and analyzed for F-actin content on a FACSCalibur with CellQuest software (Beckton Dickinson, Mountain View, Calif., U.S.A.). […] The cells were washed twice with PBS and analyzed by flow cytometry.

[1] = tested on: CD4+ T cells from DO11.10 transgenic mice; test: IL-2 production by DO11.10 transgenic CD4+ T cells activated with ovalbumin and APCs; assay type: cell-based, mouse; settings: 0.5, 5.0 and 50 μg/mL Salp15; ovalbumin; 72 hrs
Procedure: T-cells from CD4-deficient and B6 mice (The Jackson Laboratory, Bar Harbor, Me., U.S.A.) were purified by negative selection and activated for 72 hrs using 5 μg/ml of plate bound anti-CD3 and 1 μg/ml of anti-CD28 in the presence or absence of 50 μg/mL of Salp15. DO11.10 transgenic mouse (The Jackson Laboratory) CD4^+ T cells were purified by negative selection as before and incubated in the presence of 106/mL of syngeneic mitomycin C-treated (50 μg/ml for 40 min at 37° C.) antigen presenting cells (APCs) with 10 μg/mL of ovalbumin in the presence of 0.5, 5.0 and 50 μg/mL of Salp15 for 72 hrs. The supernatants were then collected and IL-2 measured by capture ELISA following the manufacturer's instruction (BD Biosciences Pharmingen).

Salp15: secreted salivary protein from Ixodes scapularis, SEQ ID NO: 2; recombinant His-tagged, produced in Drosophila S2 cells
Inhibitory effects on TCR ligation-induced tyrosine phosphorylation (Jurkat clone E6-1; Jurkat cells, anti-pTyr staining): also observed
Inhibition of PLCγ1 phosphorylation (Jurkat clone E6-1; Jurkat clone E6-1): also evident
Salp15 binding on untransfected HeLa cells (CD4 on HeLa-CD4 cells; confocal microscopy): but not in untransfected cells
Salp15 binding to HeLa-CD4 cells compared to non-transfected controls (CD4 on HeLa-CD4 cells; flow cytometry): increase
Inhibition of IL-2 production [1]: dose dependent manner
